{
  "source": "paper PMC7140522",
  "about": "“The Pyrazolo[3,4-d]pyrimidine Derivative, SCO-201, Reverses Multidrug Resistance Mediated by ABCG2/BCRP” (Cells, 2020)",
  "key": {"MDCK-II-WT cells": {"test_system": "MDCK-II-WT cells", "test": "MDR reversal analysis with MTT assay, MDCK-II-WT", "assay_type": "cell-based, canine", "details": "Canis lupus familiaris, 72 h drug exposure, read-out: IC50 Value for Each Cell Line: MDCK-II-WT", "protocol": "Cells were seeded in Nunc 96-well plates (2000 or 8000 cells/well for the MDCK-II and HT29 cells, respectively). Following cell attachment (12–24 h), drugs were added to a total volume of 200 µL. Control conditions consisted of full growth medium. All treatments were performed in triplicate. Following 72 h of drug exposure, MTT reagent was added for either 1 h (MDCK-II) or 3 h (HT29). For cell lysis and solubilization of the formazan crystals, DMSO was added to the MDCK-II cells, whereas acidified (0.02 M HCl) sodium dodecyl sulphate was added to the HT29 cells. […] Background optical density values were subtracted, and the average optical densities were calculated. Cell viability was calculated as percentage of untreated control cells. The mean IC50 values were determined using GraphPad Prism (version 6.0, San Diego, CA, USA)."}, "OAT3": {"biological_target": "T1, OAT3 (Homo sapiens, UniProt Q8TCC7)", "T1 construct": "expressed in transfected cells; host or cells: CHO", "T1 sequence (Q8TCC7 whole entry)": "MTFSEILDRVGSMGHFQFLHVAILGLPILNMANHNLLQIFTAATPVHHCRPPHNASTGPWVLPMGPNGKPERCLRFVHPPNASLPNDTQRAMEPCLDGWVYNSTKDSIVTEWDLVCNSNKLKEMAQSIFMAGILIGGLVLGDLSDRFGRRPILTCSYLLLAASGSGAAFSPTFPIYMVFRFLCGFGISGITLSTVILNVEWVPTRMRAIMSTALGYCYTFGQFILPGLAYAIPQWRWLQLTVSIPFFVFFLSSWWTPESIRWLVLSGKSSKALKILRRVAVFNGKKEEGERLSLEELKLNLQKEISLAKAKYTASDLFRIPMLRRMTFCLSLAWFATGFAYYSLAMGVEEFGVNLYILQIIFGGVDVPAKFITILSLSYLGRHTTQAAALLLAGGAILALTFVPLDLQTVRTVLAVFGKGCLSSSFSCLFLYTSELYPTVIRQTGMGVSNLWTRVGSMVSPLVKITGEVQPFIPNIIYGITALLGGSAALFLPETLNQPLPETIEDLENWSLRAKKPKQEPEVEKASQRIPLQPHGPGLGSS", "test": "Fluorometric transporter inhibition, OAT3-CHO", "assay_type": "in vitro ADME", "details": "CF substrate", "procedure": "(§1) Cells were seeded in a 96-well plate (20,000 cells/well) and used on days 2 or 3 post-seeding. […] Subsequently, substrate was added to the plate followed by 20 min incubation at 37 °C. The plate was then washed with cold assay buffer followed by fluorescence reading on a plate reader. The tested transporters, cell lines, substrates, and reference inhibitors are shown in the Supplementary Materials (Tables S1 and S2).\n(§2) 110 Table S1. […]\nOAT3 (h) inhibition (OAT3-CHO, CF substrate) […]\n(§3) The IC50 values are shown for the analysed transporters with […]"}, "HT29SN-38-RES cells": {"test_system": "HT29SN-38-RES cells", "test": "MDR reversal analysis with MTT assay, HT29SN-38-RES", "assay_type": "cell-based, human", "details": "72 hours, oxaliplatin is not a substrate for BCRP", "procedure": "(§4) Control conditions consisted of full growth medium. All treatments were performed in triplicate."}, "[1]": {"details": "cited from earlier work"}, "CYP2D6": {"biological_target": "CYP2D6 (Homo sapiens, UniProt P10635)", "sequence (P10635 whole entry)": "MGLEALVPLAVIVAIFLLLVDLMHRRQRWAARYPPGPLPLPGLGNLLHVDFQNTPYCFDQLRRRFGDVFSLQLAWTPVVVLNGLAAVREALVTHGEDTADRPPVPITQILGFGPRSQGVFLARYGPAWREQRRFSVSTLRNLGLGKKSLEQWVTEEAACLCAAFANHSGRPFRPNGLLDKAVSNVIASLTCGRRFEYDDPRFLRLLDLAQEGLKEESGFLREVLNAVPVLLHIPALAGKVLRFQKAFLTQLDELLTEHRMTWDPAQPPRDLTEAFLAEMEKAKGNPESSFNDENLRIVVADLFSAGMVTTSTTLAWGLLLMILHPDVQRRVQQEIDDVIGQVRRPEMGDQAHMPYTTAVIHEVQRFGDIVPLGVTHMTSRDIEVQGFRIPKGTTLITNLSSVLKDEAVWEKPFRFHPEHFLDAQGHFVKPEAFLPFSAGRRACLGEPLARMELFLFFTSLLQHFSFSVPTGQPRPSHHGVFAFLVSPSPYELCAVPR", "details": "both, pH 7.4"}, "CYP2C8": {"biological_target": "CYP2C8 (Homo sapiens, UniProt P10632)", "sequence (P10632 whole entry)": "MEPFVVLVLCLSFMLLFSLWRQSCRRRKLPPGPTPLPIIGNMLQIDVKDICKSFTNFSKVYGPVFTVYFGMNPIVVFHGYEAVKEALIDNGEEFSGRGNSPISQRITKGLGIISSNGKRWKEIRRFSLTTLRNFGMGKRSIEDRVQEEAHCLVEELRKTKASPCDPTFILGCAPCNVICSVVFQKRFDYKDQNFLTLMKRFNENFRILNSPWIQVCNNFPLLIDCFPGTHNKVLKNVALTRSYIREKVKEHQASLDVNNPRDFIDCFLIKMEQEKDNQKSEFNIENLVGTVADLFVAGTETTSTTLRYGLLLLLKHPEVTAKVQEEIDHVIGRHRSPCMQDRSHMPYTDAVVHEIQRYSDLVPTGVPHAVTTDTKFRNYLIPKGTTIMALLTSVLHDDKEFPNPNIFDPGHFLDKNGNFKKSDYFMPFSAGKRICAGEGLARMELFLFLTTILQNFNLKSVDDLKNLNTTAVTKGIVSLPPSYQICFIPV", "details": "both, 10 min, pH 7.4"}, "BCRP [2]": {"biological_target": "T2, BCRP (Homo sapiens, UniProt Q9UNQ0)", "T2 sequence (Q9UNQ0 1-655)": "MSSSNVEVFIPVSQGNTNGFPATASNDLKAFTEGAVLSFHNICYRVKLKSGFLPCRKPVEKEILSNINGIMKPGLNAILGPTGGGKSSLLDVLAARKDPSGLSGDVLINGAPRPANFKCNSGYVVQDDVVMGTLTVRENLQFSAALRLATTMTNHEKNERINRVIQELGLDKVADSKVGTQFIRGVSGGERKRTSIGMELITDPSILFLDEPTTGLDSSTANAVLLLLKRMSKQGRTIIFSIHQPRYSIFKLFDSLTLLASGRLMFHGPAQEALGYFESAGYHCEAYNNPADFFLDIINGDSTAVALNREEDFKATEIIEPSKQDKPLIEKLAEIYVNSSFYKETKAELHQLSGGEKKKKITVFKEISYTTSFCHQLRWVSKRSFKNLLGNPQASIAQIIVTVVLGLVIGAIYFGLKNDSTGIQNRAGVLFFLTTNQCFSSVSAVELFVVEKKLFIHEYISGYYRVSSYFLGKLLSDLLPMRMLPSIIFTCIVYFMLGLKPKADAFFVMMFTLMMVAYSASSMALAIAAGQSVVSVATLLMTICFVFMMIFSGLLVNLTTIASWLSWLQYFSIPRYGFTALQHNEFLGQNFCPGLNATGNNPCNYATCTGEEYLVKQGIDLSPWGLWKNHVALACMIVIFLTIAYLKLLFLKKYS", "test": "[…] ATPase assay with recombinant BCRP membranes", "assay_type": "biochemical", "set-up": "purchased Solvo Biotechnology (via Sigma-Aldrich/Merck) SB-BCRP-M", "details": "sulfasalazine alone; basal activity 50.68", "procedure": "After incubation with test compounds, MgATP was added to each well and incubated at 37 °C for 10 min. The ATPase reaction was stopped by the addition of 1x Developer solution at room temperature (RT). Two minutes after, 100 µL Blocker solution was added and the plate was incubated for 30 min at 37 °C for 30 min. The optical densities were measured at 620 nm using a PowerWave X Microplate spectrophotometer (BioTek, Bad Friedrichshall, Germany)."}, "OATP1B1": {"biological_target": "T3, OATP1B1 (Homo sapiens, UniProt Q9Y6L6)", "T3 construct": "expressed in transfected cells; host or cells: CHO", "T3 sequence (Q9Y6L6 whole entry)": "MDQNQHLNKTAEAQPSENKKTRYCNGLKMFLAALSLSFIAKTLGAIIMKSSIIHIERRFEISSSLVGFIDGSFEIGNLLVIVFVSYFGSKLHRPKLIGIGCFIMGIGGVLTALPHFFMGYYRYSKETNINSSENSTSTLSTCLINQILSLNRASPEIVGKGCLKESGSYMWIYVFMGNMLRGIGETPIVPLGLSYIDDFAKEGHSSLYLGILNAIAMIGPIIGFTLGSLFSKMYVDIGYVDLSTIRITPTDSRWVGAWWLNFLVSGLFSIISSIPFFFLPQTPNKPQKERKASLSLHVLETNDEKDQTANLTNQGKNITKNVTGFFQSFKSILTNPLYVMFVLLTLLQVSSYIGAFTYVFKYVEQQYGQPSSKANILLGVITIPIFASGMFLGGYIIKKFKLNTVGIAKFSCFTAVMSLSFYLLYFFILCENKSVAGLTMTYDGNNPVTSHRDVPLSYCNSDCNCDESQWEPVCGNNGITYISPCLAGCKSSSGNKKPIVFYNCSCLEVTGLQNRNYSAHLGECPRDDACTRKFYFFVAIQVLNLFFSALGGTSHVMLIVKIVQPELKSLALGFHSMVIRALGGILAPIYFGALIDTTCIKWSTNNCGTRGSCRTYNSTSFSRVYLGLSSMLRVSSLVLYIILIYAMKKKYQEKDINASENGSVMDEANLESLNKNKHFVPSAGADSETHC", "test": "Fluorometric transporter inhibition, OATP1B1-CHO", "assay_type": "in vitro ADME", "details": "FMTX substrate", "procedure": "as §1\n110 Table S1. In vitro DMPK analysis of transporter inhibition\nOATP1B1 OATP1B1-CHO Fluorescein methotrexate Rifampicin […]\nOATP1B1 (h) inhibition (OATP1B1-CHO, FMTX substrate) […]\nas §3"}, "OATP1B3": {"biological_target": "T4, OATP1B3 (Homo sapiens, UniProt Q9NPD5)", "T4 construct": "expressed in transfected cells; host or cells: CHO", "T4 sequence (Q9NPD5 whole entry)": "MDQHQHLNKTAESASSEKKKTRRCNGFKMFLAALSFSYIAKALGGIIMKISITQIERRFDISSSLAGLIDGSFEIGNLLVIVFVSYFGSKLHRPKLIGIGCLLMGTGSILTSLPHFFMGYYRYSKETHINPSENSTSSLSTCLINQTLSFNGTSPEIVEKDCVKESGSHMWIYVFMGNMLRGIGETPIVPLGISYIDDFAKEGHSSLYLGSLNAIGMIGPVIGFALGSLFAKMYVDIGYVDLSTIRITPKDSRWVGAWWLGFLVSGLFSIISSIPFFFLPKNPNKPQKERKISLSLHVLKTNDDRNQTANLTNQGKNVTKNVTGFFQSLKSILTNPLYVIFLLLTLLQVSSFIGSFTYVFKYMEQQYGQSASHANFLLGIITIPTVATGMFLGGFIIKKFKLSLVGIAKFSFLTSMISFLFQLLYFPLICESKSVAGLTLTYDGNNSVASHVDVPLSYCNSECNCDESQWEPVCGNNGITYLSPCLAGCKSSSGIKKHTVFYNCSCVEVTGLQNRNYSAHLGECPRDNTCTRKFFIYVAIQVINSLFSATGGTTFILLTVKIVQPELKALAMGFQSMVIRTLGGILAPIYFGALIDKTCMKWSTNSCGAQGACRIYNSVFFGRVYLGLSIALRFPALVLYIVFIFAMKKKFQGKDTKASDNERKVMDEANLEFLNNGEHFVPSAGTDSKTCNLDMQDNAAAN", "test": "Fluorometric transporter inhibition, OATP1B3-CHO", "assay_type": "in vitro ADME", "details": "FMTX substrate", "procedure": "as §1, §2\nOATP1B3 OATP1B3-CHO Fluorescein methotrexate Rifampicin […]\nOATP1B3 (h) inhibition (OATP1B3 -CHO, FMTX substrate) […]\nas §3"}, "CYP2C19": {"biological_target": "CYP2C19 (Homo sapiens, UniProt P33261)", "sequence (P33261 whole entry)": "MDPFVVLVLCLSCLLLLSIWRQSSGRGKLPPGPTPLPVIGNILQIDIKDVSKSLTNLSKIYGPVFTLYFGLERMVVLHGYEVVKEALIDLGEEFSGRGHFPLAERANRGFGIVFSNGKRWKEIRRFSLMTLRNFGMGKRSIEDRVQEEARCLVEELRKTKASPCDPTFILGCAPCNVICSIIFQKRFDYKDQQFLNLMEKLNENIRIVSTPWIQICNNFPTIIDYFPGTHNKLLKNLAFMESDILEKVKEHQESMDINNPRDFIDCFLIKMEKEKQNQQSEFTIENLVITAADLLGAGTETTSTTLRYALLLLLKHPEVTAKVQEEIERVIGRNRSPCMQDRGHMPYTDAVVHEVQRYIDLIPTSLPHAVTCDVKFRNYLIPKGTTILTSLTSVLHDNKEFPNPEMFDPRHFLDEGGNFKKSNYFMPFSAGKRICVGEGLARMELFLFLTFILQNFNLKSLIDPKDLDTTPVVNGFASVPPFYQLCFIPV", "test": "CYP inhibition, CYP2C19", "details": "HLM, omeprazole substrate"}, "[3]": {"test": "Apparent permeability across Caco-2 cell monolayers", "details": "human, Caco-2, pH 7.4", "protocol": "Bidirectional transport experiments with [3H]-estrone-3-sulfate were completed with monolayers of Caco-2 cells from the American Type Culture Collection (ATCC) cultured on Transwell permeable supports for 27 days in Dulbecco’s modified Eagle’s medium, supplemented with 10% FBS, 10 μL·mL^−1 nonessential amino acids (×100), and 100 U·mL^−1 to 100 μg·mL^−1 penicillin-streptomycin solution. The transepithelial electrical resistance was measured across Caco-2 cell monolayers with an Endohm 12-cup electrode chamber (World Precision Instruments Inc., Sarasota, FL, USA) connected volt meter (EVOM, World Precision Instruments Inc., Sarasota, FL, USA) to ensure that cell monolayers were electrically tight before initiating transport experiments. Cell monolayers were allowed to equilibrate to room temperature before the resistance was measured. Prior to initiating the transport experiments, the cell monolayers were pre-incubated in transport buffer (HBSS supplemented with 10 mM HEPES, pH 7.4, and 0.05 % BSA) for 30 min. […] For transport experiments in the apical to basolateral direction, samples of 100 µL were taken from the basoteral compartment (volume 1 mL) at t = 15, 30, 45, 60, 90, and 120 min. From transport experiments in the basolateral to apical direction, samples of 50 µL were taken from the apical compartment (volume 0.5 mL) at the same time points. The withdrawn sample volume from the acceptor compartments were immediately replaced with an equal volume of blank transport buffer. The withdrawn samples were pipetted into scintillation vials and mixed with 2 mL of scintillation fluid. […] Transport of mannitol was measured to validate the barrier integrity of the Caco-2 cell monolayers.\nData treatment: The accumulated amount of compound (Qt, nmol) appearing in the donor compartment was plotted against time. The steady-state flux of compound was calculated as the slope of the linear part of this plot, thus correcting for lag-time effects. The apparent permeability was subsequently calculated with Equation (1):(1) P=J/C_0=Q_t/(C0*A_t) where J represents the steady state flux (nmol·cm^−2·min^−1), C0 represents the initial concentration in the donor compartment, At denotes the area of the permeable support (1.12 cm^2), and Qt is the accumulated amount of compound (nmol) in the receiver compartment at time t (min).\nThe ratio between apparent permeability in the basolateral to apical direction and the apparent permeability in the opposite direction (efflux ratio = PB−A/PA−B ) was used as a measure of active efflux transport."}, "BCRP [4]": {"biological_target": "T2, BCRP", "test": "Cellular dye efflux assay (Hoechst 33342) in HT29SN-38-RES cells", "assay_type": "cell-based", "set-up": "endogenous in cells; host or cells: HT29 SN-38-RES (drug-selected HT29)", "details": "fluorescence microscopy and imaging cytometry", "protocol": "HT29 cells were seeded either into a 96-well Nunclon plate (Thermo Fisher Scientific, Roskilde, Denmark) at a density of 6000 cells/well (for Celigo Imaging Cytometry) or into a Nunc 6-well plate at a density of 150,000 cells/well (for fluorescence microscopy). […] Then, the cells were washed with ice-cold PBS to remove excess Hoechst dye. Drugs were added again and the cells were incubated for 1h at 37 °C. The plates were analyzed with either fluorescence microscopy (6-well plates) or imaging cytometry (96-well plates). For the Celigo Imaging Cytometry (Lawrence, MA, USA), the application “Target 1 + 2 (merge)” was used, and the mean fluorescence intensities were measured and data presented as percentage of parental control."}, "HT29PAR cells": {"test_system": "HT29PAR cells", "test": "MDR reversal analysis with MTT assay, HT29PAR", "assay_type": "cell-based", "details": "Homo sapiens, 72 h drug exposure, read-out: IC50 Value for Each Cell Line: HT29PAR", "procedure": "as §4"}, "CYP2B6 [5]": {"biological_target": "T5, CYP2B6 (Homo sapiens, UniProt P20813)", "T5 sequence (P20813 whole entry)": "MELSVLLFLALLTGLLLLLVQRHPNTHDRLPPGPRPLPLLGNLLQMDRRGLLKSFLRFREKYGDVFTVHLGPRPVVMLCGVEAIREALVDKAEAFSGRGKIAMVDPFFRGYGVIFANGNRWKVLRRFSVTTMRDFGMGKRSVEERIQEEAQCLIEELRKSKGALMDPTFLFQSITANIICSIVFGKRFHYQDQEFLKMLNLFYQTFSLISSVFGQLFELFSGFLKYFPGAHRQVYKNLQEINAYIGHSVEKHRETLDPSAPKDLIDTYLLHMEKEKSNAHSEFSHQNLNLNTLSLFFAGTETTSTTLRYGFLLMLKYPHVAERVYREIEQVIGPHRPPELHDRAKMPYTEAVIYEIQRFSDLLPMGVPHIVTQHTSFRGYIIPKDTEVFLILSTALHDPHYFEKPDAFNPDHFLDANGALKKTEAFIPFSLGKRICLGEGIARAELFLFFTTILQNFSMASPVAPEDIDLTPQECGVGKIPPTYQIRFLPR", "details": "both, 10 min, pH 7.4"}, "CYP2B6 [6]": {"biological_target": "T5, CYP2B6", "test": "biochemical"}},
  "data": [
    {"smiles": "O=C1c2c(O)ccc(O)c2C(=O)c2c(NCCNCCO)ccc(NCCNCCO)c21", "note": "[Mitoxantrone]", "values": [
      {"measurement": "IC50", "setting": "MDCK-II-WT cells", "value": "157 ± 23", "unit": "nM"}
    ]},
    {"smiles": "CCCN(CCC)S(=O)(=O)c1ccc(C(=O)O)cc1", "note": "[Probenecid]", "values": [
      {"measurement": "nH", "setting": "OAT3", "value": 0.6}
    ]},
    {"smiles": "COc1ccc2c3c([nH]c2c1)[C@H](CC(C)C)N1C(=O)[C@H](CCC(=O)OC(C)(C)C)NC(=O)[C@@H]1C3", "note": "[Ko143, reference compound]", "values": [
      {"measurement": "combinatorial effect with oxaliplatin on cell viability", "setting": "HT29SN-38-RES cells", "value": "no added effects"},
      {"measurement": "stability in plasma", "setting": "[1]", "value": "not stable in plasma"}
    ]},
    {"smiles": "C=C[C@H]1C[N@@]2CC[C@H]1C[C@@H]2[C@@H](O)c1ccnc2ccc(OC)cc12", "note": "[Quinidine]", "values": [
      {"measurement": "nH", "setting": "CYP2D6", "value": 1.1}
    ]},
    {"smiles": "C[C@]12CC[C@@H]3c4ccc(OS(=O)(=O)O)cc4CC[C@H]3[C@@H]1CCC2=O", "note": "[[^3H]-estrone-3-sulfate]", "values": [
      {"measurement": "apparent permeability in the efflux direction (basolateral to apical)", "setting": "Caco-2 cell monolayers", "value": "2.7 ± 0.2 × 10^−5 cm/second"},
      {"measurement": "apparent permeability in the opposite direction (apical to basolateral)", "setting": "Caco-2 cell monolayers", "value": "2.2 ± 0.01 × 10^−6 cm/second"},
      {"measurement": "efflux ratio (PB-A/PA-B)", "setting": "Caco-2 cell monolayers", "value": 12.2}
    ]},
    {"smiles": "CC(C)(O)c1ccccc1CC[C@@H](SCC1(CC(=O)O)CC1)c1cccc(/C=C/c2ccc3ccc(Cl)cc3n2)c1", "note": "[Montelukast]", "values": [
      {"measurement": "nH", "setting": "CYP2C8", "value": 0.8}
    ]},
    {"smiles": "O=C(O)c1cc(/N=N/c2ccc(S(=O)(=O)Nc3ccccn3)cc2)ccc1O", "note": "[Sulfasalazine, reference compound]", "values": [
      {"measurement": "maximal ATPase activity", "setting": "BCRP [2]", "value": 104.8, "unit": "nmol Pi/mg protein/min"}
    ]},
    {"smiles": "CO[C@H]1/C=C/O[C@@]2(C)Oc3c(C)c(O)c4c(O)c(c(/C=N/N5CCN(C)CC5)c(O)c4c3C2=O)NC(=O)/C(C)=C\\C=C\\[C@H](C)[C@H](O)[C@@H](C)[C@@H](O)[C@@H](C)[C@H](OC(C)=O)[C@@H]1C", "note": "[Rifampicin]", "values": [
      {"measurement": "nH", "setting": "OATP1B1", "value": 0.6},
      {"measurement": "IC50", "setting": "OATP1B1; NC: not calculable", "value": 2200, "unit": "nM"},
      {"measurement": "nH", "setting": "OATP1B3", "value": 0.4},
      {"measurement": "IC50", "setting": "OATP1B3; NC: not calculable", "value": 5400, "unit": "nM"}
    ]},
    {"smiles": "CCN(CC)CC#CCOC(=O)C(O)(c1ccccc1)C1CCCCC1", "note": "(stereo not drawn) [Oxybutynin]", "values": [
      {"measurement": "nH", "setting": "CYP2C19", "value": 1.0}
    ]},
    {"smiles": "OC[C@@H](O)[C@@H](O)[C@H](O)[C@H](O)CO", "note": "[mannitol]", "values": [
      {"measurement": "Papp at 120 min, 0.8 µCi/mL", "setting": "[3]", "value": 0.21, "unit": "×10⁻⁶ cm/s"}
    ]},
    {"smiles": "C/C=C/C[C@@H](C)C(=O)[C@H]1C(=O)N[C@@H](C(C)C)C(=O)N(C)CC(=O)N(C)[C@@H](CC(C)C)C(=O)N[C@@H](C(C)C)C(=O)N(C)[C@@H](CC(C)C)C(=O)N[C@@H](C)C(=O)N[C@H](C)C(=O)N(C)[C@@H](CC(C)C)C(=O)N(C)[C@@H](CC(C)C)C(=O)N(C)[C@@H](C(C)C)C(=O)N1C", "note": "[PSC833, reference compound]", "values": [
      {"measurement": "Hoechst accumulation in resistant cells", "setting": "BCRP [4]", "value": "did not have any effects"}
    ]},
    {"smiles": "CCc1c2c(nc3ccc(O)cc13)-c1cc3c(c(=O)n1C2)COC(=O)[C@]3(O)CC", "note": "[SN-38, 7-Ethyl-10-hydroxycamptothecin]", "values": [
      {"measurement": "IC50", "setting": "HT29PAR cells", "value": "16 ± 10", "unit": "nM"}
    ]},
    {"smiles": "CC[C@@]1(O)C(=O)OCc2c1cc1n(c2=O)Cc2cc3c(CN(C)C)c(O)ccc3nc2-1", "note": "[Topotecan]", "values": [
      {"measurement": "IC50", "setting": "HT29PAR cells", "value": "8 ± 3", "unit": "nM"}
    ]},
    {"smiles": "COC(=O)[C@H](c1ccccc1Cl)N1CCc2sccc2C1", "note": "[Clopidogrel]", "values": [
      {"measurement": "nH", "setting": "CYP2B6 [5]", "value": 1.3},
      {"measurement": "IC50", "setting": "CYP2B6 [6]", "value": 740, "unit": "nM"}
    ]}
  ]
}
